Columns and labels:
[1] = Calcein fluorescence stability in 1685 NYC III medium and G. vaginalis supernatant; assay type: physicochemical; details: 10 μg/mL calcein, 37° C., 140 hours
Protocol: Bacteria-responsive calcein release of liposomes. Calcein's stability in different media was evaluated by measuring its fluorescence intensity that varied with time in 1685 NYC III medium and G. vaginalis supernatant, respectively. Briefly, calcein was dissolved in the medium to reach a concentration of 10 μg/mL (with 1% v/v penicillin/streptomycin) added. The solution was incubated at 37° C. and shaken at 100 rpm (avoid light). Samples were taken at different time intervals and changes of fluorescence intensity were monitored.

[2] = tested on: human red blood cells (RBCs); experiment: Hemolytic activity assay; assay type: cell-based; details: 2% human RBCs, 30 min, 37° C.
Protocol: Hemolytic Activity Assay. For hemolytic assays, washed human red blood cells (RBCs) (Innovative Research, Novi, MI USA) were suspended in 1×PBS (pH 7.2, Wisent, Quebec City, QC Canada) to a final concentration of 2%. For sequestration studies, liposomal samples were diluted in PBS to the desired concentration and added to the erythrocytes. The hemolytic reaction was then initiated through the addition of either bacterial supernatant normalized to a 0.5 McFarland standard or recombinant S. pneumoniae serotype 2 PLY (E. coli host expression, MyBioSource, San Diego, CA USA) at the desired volume or concentration. For assays involving PLY, the toxin was preincubated with 2 mM dithiothreitol (DTT) for 1 hr at room temperature prior to the assay in order to reduce the cysteine residue present in the undecapeptide sequence and activate the protein [59]. The solution was incubated in a 1.5 ml Eppendorf microtube for 30 min at 37° C. and non-lysed RBCs were pelleted via centrifugation at 1000×g for 10 min at 4° C. The supernatant was then collected and transferred to a 96 well plate, with the extent of hemoglobin release determined via absorbance measurements at 450 nm. A control set was also included, involving a negative control of RBCs in only PBS and a positive control of RBCs in a 0.02% Triton™ X-100 solution (100% lysis). Percent lysis was determined from these readouts as per Eq (4): […]

Compound	calcein fluorescence decrease [1]	concentration giving full lysis [2] [ng/mL]
O=C(O)CN(CC(=O)O)Cc1cc2c(cc1O)Oc1cc(O)c(CN(CC(=O)O)CC(=O)O)cc1C21OC(=O)c2ccccc21 [calcein]	11-15%	–
pneumolysin [PLY]	–	200

Source: patent publication US20260271926A1, “BACTERIA-RESPONSIVE PARTICLES, METHODS FOR PREPARATION, AND USE IN PACKAGING OR ON SURFACES” (priority 2023, published 2026)
